Among the data in PMC10893060, “Synthesis and Study of the Structure–Activity Relationship of Antiproliferative N-Substituted Isosteviol-Based 1,3-Aminoalcohols” (Pharmaceuticals, 2024) are IC50 and melting point values, retold here.

The subject of data set [1] is breast carcinoma MDA-MB-231. More on the design: method as in PMID 26101532. Particulars: MDA-MB-231, third of three values, order assumed; cited from earlier work.
The subject of another data set is MDA-MB-231. The data set can be described thus: MTT antiproliferative assay, MDA-MB-231. Particulars: Homo sapiens, 72 h, no IC50 calculated when less than 50% inhibition at 10 μM. It counts as cell-based. An excerpt:
(§1) The antiproliferative activities of the prepared diterpene analogues were studied using an MTT assay on a panel of human adherent cancer lines, including cells from cervical (HeLa), breast (MDA-MB-231, MCF-7), and ovary cancers (A2780), as given in Figure 1 and Table S1 in the Supplementary Materials. A non-malignant fibroblast cell line (NIH/3T3) was also utilised to obtain preliminary information on the cancer selectivity of the tested compounds. Based on the obtained activities, some conclusions could be drawn regarding the structure–activity relationships (SARs). Since neither the key intermediate benzyl ester of hydroxylaldehyde 4 nor the N-Boc protected aminoalcohols (6, 7, 11, 12) or even compound 8 with a free carboxylic function exerted remarkable antiproliferative effects (except for 12 against A2780 ovarian cancer cells), we could conclude that the simultaneous presence of the ester function and the basic secondary amino function were essential for the inhibition of cell growth. […] All active molecules inhibited considerably the proliferation of non-malignant cells, which meant that most currently presented agents were not optimal for further investigations of their anticancer properties.
(§2) The growth-inhibitory effects of the isosteviol-based 1,3-aminoalcohols were determined by a standard MTT (3-(4,5-dimethylthiazol-2-yl)-2,5-diphenyltetrazolium bromide) assay on a panel containing five cell lines, including Hela (cervical cancer), MDA-MB-231 and MCF-7 (breast cancers), and A2780 ovarian cancer cells. All cell lines were purchased from the European Collection of Cell Cultures (Salisbury, UK). The cells were maintained in a minimal essential medium supplemented with 10% foetal bovine serum, 1% non-essential amino acids, and 1% penicillin–streptomycin at 37 °C in a humidified atmosphere containing 5% CO2. All media and supplements were obtained from Lonza Group Ltd. (Basel, Switzerland). Cancer cells were seeded into 96-well plates (5000 cells/well); after overnight incubation, the test compound was added in two different concentrations (10 µM and 30 µM) and incubated for another 72 h under cell-culturing conditions. In the next step, 20 μL of 5 mg/mL of an MTT solution was added to each well and incubated for a further 4 h. The medium was removed and the precipitated formazan crystals were dissolved in DMSO after 60 min of shaking at 37 °C. As a final step, the absorbance was measured at 545 nm by using a microplate reader. Untreated cells were included as controls. […] Two independent experiments were performed with five wells for each condition. Calculations were performed using the GraphPad Prism 10.0 software (GraphPad Software Inc., San Diego, CA, USA).

For a further data set, the system named is NIH/3T3. The data set can be described thus: MTT assay on non-malignant fibroblasts. It counts as cell-based. The note with it: Mus musculus, NIH3T3, 72 h, no IC50 calculated when less than 50% inhibition at 10 μM.
Source text: as §1, §2

The next data set has as its system A2780. The data set can be described thus: MTT antiproliferative assay, A2780. It counts as cell-based. The note with it: Homo sapiens, 72 h, no IC50 calculated when less than 50% inhibition at 10 μM.
Source text: as §1, §2

A further data set relates to MCF-7. The data set can be described thus: MTT antiproliferative assay, MCF-7. The format is cell-based. The note with it: Homo sapiens, MCF7, 72 h, no IC50 calculated when less than 50% inhibition at 10 μM.
Source text: as §1, §2

The subject of the next data set is HeLa. The data set can be described thus: MTT antiproliferative assay, HeLa. It counts as cell-based. Particulars: Homo sapiens, 72 h, no IC50 calculated when less than 50% inhibition at 10 μM.
Source text: as §1, §2

A value given as a limit tells only on which side of the number the result lay.

In the case of `COc1cccc2c1C(=O)c1c(O)c3c(c(O)c1C2=O)C[C@@](O)(C(=O)CO)C[C@@H]3O[C@H]1C[C@H](N)[C@H](O)[C@H](C)O1` [Adriamycin], in data set [1], the 50% inhibitory concentration (IC50) was 2.26 µM.
Regarding `C[C@]12CCC3[C@](CC[C@@H]4[C@](C)(C(=O)O)CCC[C@@]34C)(C1)[C@H](CNCc1ccc(F)cc1)[C@H]2O` (stereo partly drawn) [Compound 8, (4R,4aS,6aS,7R,8R,9S,11bS)-7-(((4-Fluorobenzyl)amino)methyl)-8-hydroxy-4,9,11b-trimethyltetradecahydro-6a,9-methanocyclohepta[a]naphthalene-4-carboxylic Acid], the melting point lay within 149 to 150 °C. The IC50 in the data set on MDA-MB-231 is more than 10 µM. Besides, in the data set with NIH/3T3, the IC50 was more than 10 µM. Moreover, the IC50 with A2780 is more than 10 µM. Moreover, the IC50 with MCF-7 is more than 10 µM. Besides, in the data set with HeLa, the IC50 is more than 10 µM.
The compound `C#CCOC(=O)[C@]1(C)CCC[C@@]2(C)C3CC[C@@]4(C)C[C@]3(CC[C@H]12)[C@H](CNCc1ccc(F)cc1)[C@H]4O` (stereo partly drawn) [Compound 14, (4R,4aS,6aS,7R,8R,9S,11bS)-Prop-2-yn-1-yl 7-(((4-fluorobenzyl)amino)methyl)-8-hydroxy-4,9,11b-trimethyltetradecahydro-6a,9-methanocyclohepta[a]naphthalene-4-carboxylate] displayed a melting point of 104 to 105 °C. Also, the IC50 with MDA-MB-231 is 2.23 µM. Further, the IC50 with NIH/3T3 is 5.92 µM. The IC50 with A2780 is 1.36 µM. For the same compound, in the data set on MCF-7, the IC50 is 1.54 µM. In the data set on HeLa, the IC50 is 2.7 µM.
On to `CC[C@@H](NC[C@@H]1[C@@H](O)[C@@]2(C)CCC3[C@]1(CC[C@@H]1[C@](C)(C(=O)OC)CCC[C@@]31C)C2)c1ccccc1` (stereo partly drawn) [Compound 24, (4R,4aS,6aS,7R,8R,9S,11bS)-Methyl 8-hydroxy-4,9,11b-trimethyl-7-((((R)-1-phenylpropyl)amino)methyl)tetradecahydro-6a,9-methanocyclohepta[a]naphthalene-4-carboxylate], for which the IC50 is 4.99 µM with MDA-MB-231; 4.44 µM in the data set with NIH/3T3; 4.52 µM in the data set on A2780; 2.37 µM with MCF-7; 3.04 µM in the data set with HeLa.
The corresponding values for `CC[C@H](NC[C@@H]1[C@@H](O)[C@@]2(C)CCC3[C@]1(CC[C@@H]1[C@](C)(C(=O)OC)CCC[C@@]31C)C2)c1ccccc1` (stereo partly drawn) [Compound 25, (4R,4aS,6aS,7R,8R,9S,11bS)-Methyl 8-hydroxy-4,9,11b-trimethyl-7-((((S)-1-phenylpropyl)amino)methyl)tetradecahydro-6a,9-methanocyclohepta[a]naphthalene-4-carboxylate] are 6.53 µM, 3.98 µM, 4.83 µM, 4.17 µM and 4.43 µM.
For `COC(=O)[C@]1(C)CCC[C@@]2(C)C3CC[C@@]4(C)C[C@]3(CC[C@H]12)[C@H](CN[C@@H](C)c1ccc2ccccc2c1)[C@H]4O` (stereo partly drawn) [Compound 26, (4R,4aS,6aS,7R,8R,9S,11bS)-Methyl 8-hydroxy-4,9,11b-trimethyl-7-((((S)-1-(naphthalen-2-yl)ethyl)amino)methyl)tetradecahydro-6a,9-methanocyclohepta[a]naphthalene-4-carboxylate], in that order: 6.07 µM, 3.12 µM, 4.11 µM, 3.67 µM and 4.33 µM.
With `COC(=O)[C@]1(C)CCC[C@@]2(C)C3CC[C@@]4(C)C[C@]3(CC[C@H]12)[C@H](CN[C@H](C)c1ccc2ccccc2c1)[C@H]4O` (stereo partly drawn) [Compound 27, (4R,4aS,6aS,7R,8R,9S,11bS)-Methyl 8-hydroxy-4,9,11b-trimethyl-7-((((R)-1-(naphthalen-2-yl)ethyl)amino)methyl)tetradecahydro-6a,9-methanocyclohepta[a]naphthalene-4-carboxylate], the IC50 with MDA-MB-231 is 4.11 µM; in the data set on NIH/3T3 it was 5.03 µM; with A2780 it was 3.26 µM; with MCF-7, 2.43 µM; with HeLa it was 3.4 µM.
For `COC(=O)[C@]1(C)CCC[C@@]2(C)C3CC[C@@]4(C)C[C@]3(CC[C@H]12)[C@H](CNCCCn1ccnc1)[C@H]4O` (stereo partly drawn) [Compound 28, (4R,4aS,6aS,7R,8R,9S,11bS)-Methyl 7-(((3-(1H-imidazol-1-yl)propyl)amino)methyl)-8-hydroxy-4,9,11b-trimethyltetradecahydro-6a,9-methanocyclohepta[a]naphthalene-4-carboxylate], in that order: 4.34 µM, 1.55 µM, 4.42 µM, 3.82 µM and 3.72 µM.

Broadly, the IC50 is the concentration that inhibits the measured activity by half. A word on the melting point: it is the temperature, or range, at which the solid turns liquid.
